Laboratory results reported in ChEMBL document CHEMBL4392848, “Proline-based hydroxamates targeting the zinc-dependent deacetylase LpxC: Synthesis, antibacterial properties, and docking studies” (Bioorg Med Chem, 2019).
≈ marks a conversion by molar mass, not a printed value.

Tests used:
[1] = test system: Escherichia coli; experiment: Antibacterial activity against Escherichia coli BL21(DE3) assessed as diameter of inhibition zone measured after overnight incubation by agar disc diffusion method; format: functional; also: test concentration or dose not given here
[2] = test system: Escherichia coli; experiment: Antibacterial activity against Escherichia coli D22 assessed as diameter of inhibition zone measured after overnight incubation by agar disc diffusion method; format: functional; also: test concentration or dose not given here
[3] = test system: Escherichia coli; experiment: Antibacterial activity against Escherichia coli BL21(DE3) measured after 20 hrs by microdilution method; format: functional
[4] = test system: Escherichia coli; experiment: Antibacterial activity against Escherichia coli D22 measured after 20 hrs by microdilution method; format: functional; details: D22, 20 h
[5] = test system: Klebsiella pneumoniae; experiment: Antibacterial activity against Klebsiella pneumoniae assessed as diameter of inhibition zone measured after 24 hrs by agar disc diffusion method; format: functional; also: test concentration or dose not given here
[6] = test system: Klebsiella oxytoca; experiment: Antibacterial activity against Klebsiella oxytoca assessed as diameter of inhibition zone measured after 24 hrs by agar disc diffusion method; format: functional; also: test concentration or dose not given here
[7] = test system: Enterobacter cloacae; experiment: Antibacterial activity against Enterobacter cloacae assessed as diameter of inhibition zone measured after 24 hrs by agar disc diffusion method; format: functional; also: test concentration or dose not given here
[8] = test system: Klebsiella aerogenes; experiment: Antibacterial activity against Enterobacter aerogenes assessed as diameter of inhibition zone measured after 24 hrs by agar disc diffusion method; format: functional; also: test concentration or dose not given here
[9] = test system: Proteus mirabilis; experiment: Antibacterial activity against Proteus mirabilis assessed as diameter of inhibition zone measured after 24 hrs by agar disc diffusion method; format: functional; also: test concentration or dose not given here
[10] = test system: Proteus vulgaris; experiment: Antibacterial activity against Proteus vulgaris assessed as diameter of inhibition zone measured after 24 hrs by agar disc diffusion method; format: functional; also: test concentration or dose not given here
[11] = test system: Citrobacter freundii; experiment: Antibacterial activity against Citrobacter freundii assessed as diameter of inhibition zone measured after 24 hrs by agar disc diffusion method; format: functional; also: test concentration or dose not given here
[12] = test system: Pseudomonas aeruginosa; experiment: Antibacterial activity against Pseudomonas aeruginosa assessed as diameter of inhibition zone measured after 24 hrs by agar disc diffusion method; format: functional; also: test concentration or dose not given here
[13] = Inhibition of Escherichia coli LpxC C63A mutant using UDP-3-O-[(R)-3-hydroxymyristoyl]-N-acetylglucosamine as substrate measured after 30 mins by fluorescence based microplate assay

Structure (SMILES)	diameter of the inhibition zone (DIZ) [1]	diameter of the inhibition zone (DIZ) [2]	MIC [3]	MIC [4]	diameter of the inhibition zone (DIZ) [5]	diameter of the inhibition zone (DIZ) [6]	diameter of the inhibition zone (DIZ) [7]	diameter of the inhibition zone (DIZ) [8]	diameter of the inhibition zone (DIZ) [9]	diameter of the inhibition zone (DIZ) [10]	diameter of the inhibition zone (DIZ) [11]	diameter of the inhibition zone (DIZ) [12]	IC50 [13]	Ki [13]
N[C@H]1C[C@@H](C(=O)NO)N(C(=O)c2ccc(C#Cc3ccccc3)cc2)C1	7.5 mm	12.3 mm	> 256 µM	128 µM (≈ 44.7 µg/mL)	7 mm	7 mm	7 mm	7 mm	8 mm	<6 mm	7 mm	7 mm	–	–
Nc1ccc(C#Cc2ccc(C(=O)N3C[C@H](O)C[C@H]3C(=O)NO)cc2)cc1	<6 mm	12.3 mm	> 256 µM	128 µM (≈ 46.8 µg/mL)	<6 mm	7 mm	<6 mm	<6 mm	7 mm	<6 mm	<6 mm	<6 mm	–	–
O=C(NO)[C@@H]1CCCN1C(=O)c1ccc(C#Cc2ccc(CN3CCS(=O)(=O)CC3)cc2)cc1	10.7 mm	17 mm	> 256 µM	64 µM (≈ 30.8 µg/mL)	11 mm	<6 mm	10 mm	8 mm	9 mm	10 mm	<6 mm	<6 mm	17.1 µM	2.4 µM
Nc1ccc(C#Cc2ccc(C(=O)N3CCC[C@H]3C(=O)NO)cc2)cc1	7.5 mm	14.3 mm	> 256 µM	128 µM (≈ 44.7 µg/mL)	<6 mm	7 mm	<6 mm	<6 mm	<6 mm	<6 mm	7 mm	<6 mm	–	–
O=C(NO)[C@@H]1CCCN1C(=O)c1ccc(C#Cc2ccccc2)cc1	<6 mm	12 mm	> 256 µM	128 µM (≈ 42.8 µg/mL)	<6 mm	8 mm	8 mm	<6 mm	<6 mm	7 mm	8 mm	<6 mm	> 200 µM	> 27.6 µM
O=C(NO)[C@@H]1CCCN1Cc1ccc(C#Cc2ccc(CN3CCSCC3)cc2)cc1	10.7 mm	17.7 mm	64 µM (≈ 27.9 µg/mL)	1 µM (≈ 0.436 µg/mL)	14 mm	11 mm	14 mm	13 mm	8 mm	<6 mm	13 mm	<6 mm	8.1 µM	1.1 µM
COc1ccc(C#Cc2ccc(C(=O)N3C[C@@H](O)C[C@H]3C(=O)NO)cc2)cc1	<6 mm	<6 mm	> 256 µM	128 µM (≈ 48.7 µg/mL)	<6 mm	7 mm	8 mm	<6 mm	<6 mm	9 mm	8 mm	<6 mm	–	–
O=C(NO)[C@@H]1O[C@@H](c2ccc(C#Cc3ccc(CN4CCOCC4)cc3)cc2)[C@@H](O)[C@H]1O	<6 mm	22.1 mm	> 256 µM	8 µM (≈ 3.51 µg/mL)	–	–	–	–	–	–	–	–	10 µM	1.4 µM
N[C@H]1C[C@@H](C(=O)NO)N(C(=O)c2ccc(C#Cc3ccc(CN4CCOCC4)cc3)cc2)C1	7.8 mm	20 mm	256 µM (≈ 115 µg/mL)	64 µM (≈ 28.7 µg/mL)	9 mm	13 mm	<6 mm	11 mm	7 mm	<6 mm	8 mm	10 mm	–	–
CC1(C)O[C@@H]2[C@H](O1)[C@H](c1ccc(C#Cc3ccc(CN4CCOCC4)cc3)cc1)O[C@@H]2C(=O)NO	<6 mm	14.7 mm	> 256 µM	128 µM (≈ 61.3 µg/mL)	–	–	–	–	–	–	–	–	> 200 µM	> 27.6 µM
O=C(NO)[C@@H]1C[C@@H](O)CN1C(=O)c1ccc(C#Cc2ccccc2)cc1	<6 mm	14 mm	> 256 µM	128 µM (≈ 44.8 µg/mL)	–	–	–	–	–	–	–	–	103 µM	14.2 µM
O=C(NO)[C@@H]1C[C@H](O)CN1C(=O)c1ccc(C#Cc2ccc(CN3CCSCC3)cc2)cc1	13 mm	21.3 mm	128 µM (≈ 59.6 µg/mL)	8 µM (≈ 3.72 µg/mL)	15 mm	11 mm	14 mm	18 mm	10 mm	9 mm	14 mm	<6 mm	32.8 µM	4.5 µM
Nc1ccc(C#Cc2ccc(C(=O)N3C[C@@H](O)C[C@H]3C(=O)NO)cc2)cc1	<6 mm	13 mm	> 256 µM	128 µM (≈ 46.8 µg/mL)	<6 mm	8 mm	<6 mm	<6 mm	8 mm	<6 mm	<6 mm	<6 mm	–	–
O=C(NO)[C@@H]1C[C@H](F)CN1Cc1ccc(C#Cc2ccccc2)cc1	<6 mm	10.7 mm	> 256 µM	128 µM (≈ 43.3 µg/mL)	–	–	–	–	–	–	–	–	> 200 µM	> 27.6 µM
O=C(NO)[C@@H]1C[C@H](F)CN1C(=O)c1ccc(C#Cc2ccccc2)cc1	<6 mm	13.3 mm	> 256 µM	128 µM (≈ 45.1 µg/mL)	–	–	–	–	–	–	–	–	65.9 µM	9.1 µM
O=C(NO)[C@@H]1C[C@@H](O)CN1C(=O)c1ccc(C#Cc2ccc(F)cc2)cc1	<6 mm	10.7 mm	> 256 µM	256 µM (≈ 94.3 µg/mL)	–	–	–	–	–	–	–	–	> 200 µM	> 27.6 µM
O=C(NO)[C@@H]1C[C@H](O)[C@H](c2ccc(C#Cc3ccc(CN4CCOCC4)cc3)cc2)O1	<6 mm	15.3 mm	> 256 µM	16 µM (≈ 6.76 µg/mL)	–	–	–	–	–	–	–	–	87 µM	12 µM
COc1ccc(C#Cc2ccc(C(=O)N3C[C@H](O)C[C@H]3C(=O)NO)cc2)cc1	<6 mm	9.7 mm	> 256 µM	64 µM (≈ 24.3 µg/mL)	<6 mm	7 mm	<6 mm	<6 mm	7 mm	8 mm	7 mm	<6 mm	–	–
O=C(NO)[C@H]1O[C@@H](c2ccc(C#Cc3ccc(CN4CCOCC4)cc3)cc2)[C@@H](O)[C@H]1O	<6 mm	13.2 mm	> 256 µM	16 µM (≈ 7.02 µg/mL)	–	–	–	–	–	–	–	–	> 200 µM	> 27.6 µM
CN(C)c1ccc(C#Cc2ccc(C(=O)N3C[C@H](O)C[C@H]3C(=O)NO)cc2)cc1	<6 mm	14 mm	256 µM (≈ 101 µg/mL)	32 µM (≈ 12.6 µg/mL)	7 mm	8 mm	<6 mm	10 mm	8 mm	<6 mm	8 mm	<6 mm	–	–
